Reference: patent US20060106102A1, “Napththalene derivatives which inhibit the cytokine or biological activity of microphage migration inhibitory factor (mif)” (priority 2002, published 2006)
Like-named read-outs stand apart in the source and are kept apart here.

Tests used:
[1] = system: ex vivo splenic T cell proliferation; assay: ex vivo antigen-specific splenic T cell proliferation after in vivo treatment; conditions: [mBSA] 10 ug/mL; cells from compound-treated versus vehicle-treated mice
Excerpt: In vivo administration of such a compound might be expected to exert effects on T cell responsiveness even after the T cells have been removed from exposure to the compound, that is, if T cells were studied ex vivo after in vivo treatment with the MIF antagonist compound. To measure ex vivo antigen-specific T cell activation, spleens were removed from mice with murine antigen induced arthritis, induced as above with mBSA, at day 28 after first immunisation and a single cell suspension prepared in DMEM containing 5% FCS and 0.05% 2-mercaptoethanol. 1×10^5 cells /200 μl were cultured in triplicate in the presence or absence of mBSA (0.1, 1.0, 10 μg /ml) in 96-well plates for 48 hours (37° C., 5% CO2) The T cell proliferation response was determined by measuring ^3H-thymidine incorporation during the final 18 hr. The cells were harvested and radioactivity incorporation into the DNA was measured with a Wallac 1409 liquid scintillation counter. The means of each triplicate culture were calculated. Each experiment comprised at least three individual animals and the results presented represent the mean±SEM of groups of animals in each experiment. The percentage inhibition of T cell proliferation was calculated using the result of the ^3H-thymidine incorporation of cells from compound-treated animals divided by the ^3H-thymidine incorporation of cells from vehicle-treated animals.

[2] = system: IL-1-induced COX-2 expression; assay: IL-1-induced COX-2 expression in S112 human dermal fibroblasts (MIF-dependent event), flow cytometry; type: cell-based; conditions: Homo sapiens, Fibroblast; compound 1 uM; IL-1 0.1 ng/ml, 6 hours; S112 cells; read-out: % inhibition of IL-1-induced COX2 expression (Effect)
Description: The activity of each compound was studied in a bioassay utilising MIF-dependent activation of human dermal fibroblasts. […] IL-1-induced COX-2 expression is therefore a MIF-dependent event. […] Prior to experimentation, cells were seeded at 10^5 cells/ml in RPMI/0.1% BSA for 18 hours. […] Cells permeabilised with 0.1% saponin were sequentially labelled with a mouse anti-human COX-2 monoclonal antibody and with sheep-anti-mouse F(ab)2 fragment labelled with fluoroscein isothiocyanate. Cellular fluorescence was determined using a flow cytometer. At least 5000 events were counted for each reading, each of which was performed in duplicate, and the results expressed in mean fluorescence intensity (MFI) after subtraction of negative control-labelled cell fluorescence. The effect of each compound was determined by subtracting the IL-1+compound-treated cell MFI from the IL-1-treated cell MFI and expressed as % inhibition. In each case the % inhibition of IL-1-induced COX2 expression is shown as the mean, or mean±SEM where results are available from multiple experiments.

[3] = system: antigen-specific T cell activation (splenic T lymphocytes from mBSA-immunised mice); assay: antigen-specific (mBSA) activation of splenic T lymphocytes in vitro, 3H-thymidine incorporation; type: cell-based, C57BL6/J mice; conditions: Mus musculus, T-cell, read-out: EC50 (T cell activation suppressed by 50% compared to vehicle-only-treated cells)
Description: After a further seven (7) days mice were killed and spleens collected aseptically into Hanks buffered saline solution (HBSS). A single cell suspension was prepared in Petri dishes by flushing DMEM through the organ using a 26G needle and 2 mL syringe. The resulting cell suspension was centrifuged for 5-7 minutes and supernatant discarded. Erythrocytes were lysed using a solution containing 0.579% NH4Cl, 0.000037% EDTA, and 0.1% NaHCO3 in a 37° C. water bath. Tubes were then filled with DMEM and centrifuged for 5-7 minutes. […] The specific stimulating antigen, mBSA, was then added at 10-50 μg/mL and plates incubated for 30 hours in a 37° C., 5% CO2 incubator. Tritiated^3H-thymidine was then added at a concentration of 0.5 μCi/well for a further 18 hours. Cells were harvested on a Packard cell harvester, and the harvested material added to 750 μL/tube scintillation fluid. Scintillation counts were read on a Wallac beta-emnission counter. […] Further compounds were also tested for their ability to inhibit antigen-specific T cell activation as a marker of the inhibition of the cytokine or biological activity of MIF using this assay.

[4] = system: recombinant human macrophage migration inhibitory factor (MIF)-induced proliferation of S112 human dermal fibroblasts; assay: MIF-induced proliferation of S112 human dermal fibroblasts, 3H-thymidine incorporation; type: cell-based
Description: The activity of each compound was studied in a bioassay utilising MIF-induced proliferation of human dermal fibroblasts. S112 human dermal fibroblasts were propagated in RPMI/10% foetal calf serum (FCS). Prior to experimentation, cells were seeded at 10^5 cells/ml in RPMI/0.1% BSA for 18 hours. At time point zero, culture medium was replaced with RPMI/10% FCS and treatments administered. Cells were treated with recombinant human macrophage migration inhibitory factor (MIF) 50 ng/ml (1.353×10^−9 M) and/or the compound at a 1 or 1000 molar ratio to the concentration of MIF. In some experiments the compound was combined with MIF at time point −30 minutes, prior to adding at time point zero. At time point 30 hours, cells were pulsed with […]. At time point 48 hours, cells were harvested using a semi-automated cell harvester. The radioactivity incorporated into DNA was determined by liquid scintillation counting, with results expressed as [^3H] thymidine incorporation. The proliferation of untreated cells was expressed as 100% and the effect of MIF and each compound expressed in relative %.
The activity of compound 5 was studied in a bioassay utilising MIF-induced proliferation of human dermal fibroblasts. S112 human dermal fibroblasts were propagated in RPMI/10% foetal calf serum (FCS). Prior to experimentation, cells were seeded at 10^5 cells/ml in RPMII/0.1% BSA for 18 hours. At time point zero, culture medium was replaced with RPMI/10% FCS and treatments administered. Cells were treated with recombinant human macrophage migration inhibitory factor (MIF) 50 ng/ml and/or compound 5 at a 1-1000 molar ratio to the concentration of MIF. At a time point 30 hours later, cells were pulsed with 1 μCi/well of ^3H-thymidine. At a time point 48 hours after commencement of the experiment, cells were harvested using a semi-automated cell harvester. The radioactivity incorporated into DNA was determined by liquid scintillation counting, with results expressed as [^3H] thymidine incorporation.

**Q.** Which results are given for `COc1cc2ccc(C(=O)O)cc2cc1OC` [Compound 4, 6,7-dimethoxy-2-naphthanoic acid]?
**A.** % inhibition of ex vivo splenic T cell proliferation [1]: 18%; inhibition at 1 µM [2]: 2.7%; EC50 ([3]; mBSA 10 μg/ml): 14.8 µM; EC50 ([3]; mBSA 50 μg/ml): 49.5 µM; melting point: 248 to 250 °C; effect on MIF-induced proliferation of human dermal fibroblasts (FIGS. 1 and 2) ([4]; 1M ratio equivalent to MIF 50 ng/ml): inhibition of MIF-induced proliferation; inhibition at 0.013 µM ([4]; Homo sapiens, Fibroblast, concentration 0.013 μM, rhMIF 50 ng/ml, S112 cells, read-out: % inhibition of proliferation compared to vehicle plus rhMIF-treated cells): 24%
